Values after ≈ are worked out from the molar mass of the structure shown. Like-named read-outs stand apart in the source and are kept apart here.
Key:
Assay type in all cases: cell-based
Pasteurella hemolytica = assay: MIC (minimum inhibitory concentration), agar dilution, Pasteurella hemolytica; conditions: Pasteurella, read-out: MIC
Method: (§1) Stock solution of each test antibiotic compound were prepared to have a concentration of 2 mg. of the test compound per milliliter in sterile water of 0.1M ammonium acetate solution. The amount of each compound used was adjusted for base compound activity as calculated from the purity data for the selected batch of compound.
(§2) The dilution procedure described by Washington and Sutter [Manual of Clinical Microbiology, 3rd, Edit. (Lennett, E. H. et al, Eds.), pp. 453-458 (1980), American Society for Microbiology, Washington, D.C.] was modified so that serial concentrations of 128 to 0.0625 microgram/ml. in sterile water was obtained. Then 1.5 ml. aliquots of these test antibiotic dilution mixtures are added to 13.5 molten (50° C.) Mueller-Hinton agar. Each resulting mixture is poured into 15×100 mm, sterile Petri plates and allowed to dry at room temperature overnight.
(§3) Test bacterial cultures are maintained at -70° C. on glass beads. [See R. J. Yancey, Jr. et al, Amer. Jr. of Vet. Research, 48, No. 7, pp. 1050-1053, (1987)]. At least one bacteria-laden bead per culture is dropped into one ml. of brain heart infusion (BHI) broth for overnight culture at 37° C. in 5% V/V carbon dioxide in air atmosphere.
(§4) On the data of assay, 2 to 8 drops of the bacterial broth cultures are transferred to fresh BHI broth (1 ml.) and the mixture is incubated for 4 to 6 hours at 37° C. in a 5% V/V carbon dioxide in air atmosphere. The resulting cultures are then diluted to match a 0.5 MacFarland standard and further diluted 1:20 V/V with sterile saline solution.
(§5) A 0.001 ml. drop of the resulting mixture, containing approximately 10^3 to 10^4 colony forming units (CFU) of each test bacteria organism, is dispensed onto the surface of the test antibiotic compound test plates with a Steer's type replicator. The resulting innoculated plates are incubated 16 to 18 hours at 37° C. with a carbon dioxide atmosphere.
(§6) Stock solutions of each test antibiotic compound were prepared to have a concentration of 2 mg. of the test compound per milliliter in sterile water of 0.1M ammonium acetate solution. The amount of each compound used was adjusted for base compound activity as calculated from the purity data for the selected batch of compound.
(§7) The dilution procedure described by Washington and Sutter [Manual of Clinical Microbiology, 3rd, Edit. (Lennett, E. H. et al, Eds.), pp. 453-458 (1980), American Society for Microbiology, Washington, D.C.] was modified so that serial concentrations of 128 to 0.0625 microgram/ml. in sterile water was obtained. Then 1.5 ml. aliquots of these test antibiotic dilution mixtures are added to 13.5 molten (50° C.) Mueller-Hinton agar. Each resulting mixture is poured into 15×100 mm. sterile Petri plates and allowed to dry at room temperature overnight.
(§8) The dilution procedure described by Washington and Sutter [Manual of Clinical Microbiology, 3rd, Edit. (Lennett, E. H. et al, Eds.), pp. 453-458 (1980), American Society for Microbiology. Washington, D.C.] was modified so that serial concentrations of 128 to 0.0625 microgram/ml. in sterile water was obtained. Then 1.5 ml. aliquots of these test antibiotic dilution mixtures are added to 13.5 molten (50° C.) Mueller-Hinton agar. Each resulting mixture is poured into 15×100 mm. sterile Petri plates and allowed to dry at room temperature overnight.
(§9) Test bacterial culture are maintained at -70° C. on glass beads. [See R. J. Yancey, Jr. et al, Amer. Jr. of Vet. Research, 48, No. 7, pp. 1050-1053, (1987)]. At least one bacteria-laden bead per culture is dropped into one ml. of brain heart infusion (BHI) broth for overnight culture at 37° C. in 5% V/V carbon dioxide in air atmosphere.
(§10) On the day of assay, 2 to 8 drops of the bacterial broth cultures are transferred to fresh BHI broth (1 ml.) and the mixture is incubated for 4 to 6 hours at 37° C. in a 5% V/V carbon dioxide in air atmosphere. […]

Salmonella typhimurium = assay: MIC, agar dilution, Salmonella typhimurium; conditions: Salmonella enterica, read-out: MIC
Method: as §1, §2, §3, §4, §5, §6, §7, §8, §9, §10

Streptococcus agalactiae = assay: MIC, agar dilution, Streptococcus agalactiae; conditions: Streptococcus agalactiae, read-out: MIC
Method: as §1, §2, §3, §4, §5, §6, §7, §8, §9, §10

Micrococcus luteus = assay: MIC, agar dilution, Micrococcus luteus; conditions: Micrococcus luteus; strain UC130; read-out: MIC
Method: as §1, §2, §3, §4, §5, §6, §7, §8, §9, §10

Corynebacterium pyogenes = assay: MIC, agar dilution, Corynebacterium pyogenes; conditions: strain 213-2; read-out: MIC
Method: as §1, §2, §3, §4, §5, §6, §7, §8, §9, §10

Salmonella choleraesuis = assay: MIC, agar dilution, Salmonella choleraesuis; conditions: Salmonella enterica, read-out: MIC
Method: as §1, §2, §3, §4, §5, §6, §7, §8, §9, §10

[1] = tested on: Bordetella bronchiseptica; assay: MIC, agar dilution, Bordetella bronchiseptica; conditions: Bordetella bronchiseptica; strain UC6313; read-out: MIC
Method: as §1, §2, §3, §4, §5, §6, §7, §8, §9, §10

Enterococcus faecium = assay: MIC, agar dilution, Enterococcus faecium; conditions: Enterococcus faecium; strain UC241; read-out: MIC
Method: as §6, §2, §3, §4, §5, §1, §7, §8, §9, §10

Pseudomonas aeruginosa = assay: MIC, agar dilution, Pseudomonas aeruginosa; conditions: Pseudomonas aeruginosa, read-out: MIC
Method: as §1, §2, §3, §4, §5, §6, §7, §8, §9, §10

Streptococcus uberis = assay: MIC, agar dilution, Streptococcus uberis; conditions: Streptococcus uberis, read-out: MIC
Method: as §1, §2, §3, §4, §5, §6, §7, §8, §9, §10

Streptococcus bovis = assay: MIC, agar dilution, Streptococcus bovis; conditions: Streptococcus equinus; strain UC6281; read-out: MIC
Method: as §1, §2, §3, §4, §5, §6, §7, §8, §9, §10

Escherichia coli = assay: MIC, agar dilution, Escherichia coli; conditions: Escherichia coli, read-out: MIC
Method: as §1, §2, §3, §4, §5, §6, §7, §8, §9, §10

[2] = tested on: Streptococcus dysgalactiae; assay: MIC, agar dilution, Streptococcus dysgalactiae; conditions: Streptococcus dysgalactiae; strain UC251; read-out: MIC
Method: as §1, §2, §3, §4, §5, §6, §7, §8, §9, §10

Pasteurella multocida = assay: MIC, agar dilution, Pasteurella multocida; conditions: Pasteurella multocida; strain UC9581; read-out: MIC
Method: as §1, §2, §3, §4, §5, §6, §7, §8, §9, §10

Enterococcus faecalis = assay: MIC, agar dilution, Enterococcus faecalis; conditions: Enterococcus faecalis; strain UC694; read-out: MIC
Method: as §6, §2, §3, §4, §5, §1, §7, §8, §9, §10

Staphylococcus aureus = assay: MIC, agar dilution, Staphylococcus aureus; conditions: Staphylococcus aureus, read-out: MIC
Method: as §1, §2, §3, §4, §5, §6, §7, §8, §9, §10

Streptococcus suis = assay: MIC, agar dilution, Streptococcus suis; conditions: Streptococcus suis; strain 650-2; read-out: MIC
Method: as §1, §2, §3, §4, §5, §6, §7, §8, §9, §10

[3] = TYPHIMURIUM / UC6162, strain UC6162
[4] = TYPHIMURIUM / UC6164, strain UC6164
[5] = CHOLERAESUIS / UC6073, strain UC6073
[6] = CHOLERAESUIS / UC6077, strain UC6077

SMILES | MIC (Pasteurella hemolytica; strain UC6531) | MIC (Pasteurella hemolytica; strain UC6532) | MIC (Pasteurella hemolytica; strain UC9582) | MIC (Salmonella typhimurium; [3]) | MIC (Salmonella typhimurium; [4]) | MIC (Streptococcus agalactiae; strain UC3947) | MIC (Streptococcus agalactiae; strain UC6892) | MIC (Micrococcus luteus) | MIC (Corynebacterium pyogenes) | MIC (Salmonella choleraesuis; [5]) | MIC (Salmonella choleraesuis; [6]) | MIC [1] | MIC (Enterococcus faecium) | MIC (Streptococcus uberis; strain UC3946) | MIC (Streptococcus uberis; strain UC6159) | MIC (Streptococcus bovis) | MIC (Escherichia coli; strain UC3784) | MIC (Escherichia coli; strain UC6720) | MIC (Escherichia coli; strain UC9670) | MIC [2] | also measured
CO/N=C(\C(=O)N[C@@H]1C(=O)N2C(C(=O)O)=C(CSSCC3=C(C(=O)O)N4C(=O)[C@@H](NC(=O)/C(=N\OC)c5csc(N)n5)[C@H]4SC3)CS[C@H]12)c1csc(N)n1 [Example 5, 1,1-bis-(7β)-(2-(2-amino-1,3-thiazol-4-yl)-(Z)-2-(methoxyimino)acetamido-4-carboxy-3-cephem-3-yl)dimethyldisulfide] | ≤ 0.06 µg/mL | ≤ 0.06 µg/mL | ≤ 0.06 µg/mL | 2 µg/mL (≈ 2.33 µM) | 2 µg/mL (≈ 2.33 µM) | ≤ 0.06 µg/mL | ≤ 0.06 µg/mL | ≤ 0.06 µg/mL | 0.25 µg/mL (≈ 0.292 µM) | 4 µg/mL (≈ 4.67 µM) | 8 µg/mL (≈ 9.33 µM) | > 32 µg/mL | > 32 µg/mL | 0.25 µg/mL (≈ 0.292 µM) | 16 µg/mL (≈ 18.7 µM) | ≤ 0.06 µg/mL | 2 µg/mL (≈ 2.33 µM) | 2 µg/mL (≈ 2.33 µM) | 2 µg/mL (≈ 2.33 µM) | ≤ 0.06 µg/mL | MIC (Pseudomonas aeruginosa; strain ATCC27853): > 32 µg/mL; MIC (Pasteurella multocida): ≤ 0.06 µg/mL; MIC (Enterococcus faecalis): > 32 µg/mL; MIC (Staphylococcus aureus; strain UC6093): 16 µg/mL (≈ 18.7 µM); MIC (Staphylococcus aureus; strain UC6097): 16 µg/mL (≈ 18.7 µM); MIC (Staphylococcus aureus; strain UC9203): 16 µg/mL (≈ 18.7 µM); MIC (Streptococcus suis): ≤ 0.06 µg/mL
CO/N=C(\C(=O)N[C@@H]1C(=O)N2C(C(=O)O)=C(CSSC)CS[C@H]12)c1csc(N)n1 [Example 9, 7-[2-(2-amino-1,3-thiazo-4-yl]-2-(methoxyimino)acetamimdo]-3-methyldithiomethyl-3-cephem-4-carboxylic acid] | ≤ 0.06 µg/mL | ≤ 0.06 µg/mL | ≤ 0.06 µg/mL | 1 µg/mL (≈ 2.1 µM) | 1 µg/mL (≈ 2.1 µM) | ≤ 0.06 µg/mL | ≤ 0.06 µg/mL | 0.13 µg/mL (≈ 0.273 µM) | 0.5 µg/mL (≈ 1.05 µM) | 1 µg/mL (≈ 2.1 µM) | 4 µg/mL (≈ 8.41 µM) | > 32 µg/mL | > 32 µg/mL | 0.13 µg/mL (≈ 0.273 µM) | 16 µg/mL (≈ 33.6 µM) | ≤ 0.06 µg/mL | 1 µg/mL (≈ 2.1 µM) | 1 µg/mL (≈ 2.1 µM) | 1 µg/mL (≈ 2.1 µM) | ≤ 0.06 µg/mL | MIC (Pseudomonas aeruginosa; ATCC27853, strain ATCC 27853): > 32 µg/mL; MIC (Pasteurella multocida): ≤ 0.06 µg/mL; MIC (Enterococcus faecalis): > 32 µg/mL; MIC (Staphylococcus aureus; strain UC6093): 2 µg/mL (≈ 4.21 µM); MIC (Staphylococcus aureus; strain UC6097): 2 µg/mL (≈ 4.21 µM); MIC (Staphylococcus aureus; strain UC9203): 2 µg/mL (≈ 4.21 µM); MIC (Streptococcus suis): ≤ 0.06 µg/mL
CO/N=C(\C(=O)N[C@@H]1C(=O)N2C(C(=O)O)=C(CSSCc3ccco3)CS[C@H]12)c1csc(N)n1 [Example 16] | 0.25 µg/mL (≈ 0.462 µM) | 0.13 µg/mL (≈ 0.24 µM) | 0.13 µg/mL (≈ 0.24 µM) | 16 µg/mL (≈ 29.5 µM) | 8 µg/mL (≈ 14.8 µM) | ≤ 0.06 µg/mL | ≤ 0.06 µg/mL | ≤ 0.06 µg/mL | 0.13 µg/mL (≈ 0.24 µM) | 16 µg/mL (≈ 29.5 µM) | 32 µg/mL (≈ 59.1 µM) | > 32 µg/mL | > 32 µg/mL | ≤ 0.06 µg/mL | 4 µg/mL (≈ 7.38 µM) | ≤ 0.06 µg/mL | 4 µg/mL (≈ 7.38 µM) | 8 µg/mL (≈ 14.8 µM) | 4 µg/mL (≈ 7.38 µM) | ≤ 0.06 µg/mL | MIC (Pseudomonas aeruginosa; ATCC27853, strain ATCC 27853): > 32 µg/mL; MIC (Pasteurella multocida): 1 µg/mL (≈ 1.85 µM); MIC (Enterococcus faecalis): > 32 µg/mL; MIC (Staphylococcus aureus; strain UC6093): 1 µg/mL (≈ 1.85 µM); MIC (Staphylococcus aureus; strain UC6097): 2 µg/mL (≈ 3.69 µM); MIC (Staphylococcus aureus; strain UC9203): 1 µg/mL (≈ 1.85 µM); MIC (Streptococcus suis): ≤ 0.06 µg/mL

From patent US5134137A, “Cephalosporin antibiotics” (The Upjohn Company, priority 1990, dated 1992)
